# ChEMBL document CHEMBL1148064, “Nepheliosyne A, new C47 acetylenic acid from the Okinawan marine sponge Xestospongia sp” (1994)
# Columns and labels:
# [1] = test system: L1210; experiment: Cytotoxicity against mouse L1210 cells at 20 ug/cm'3; assay type: functional
# [2] = test system: KB; experiment: Cytotoxicity against human KB cells at 20 ug/cm'3; assay type: functional
smiles,measurement,setting,value
C#CC(O)/C=C/C(O)C/C=C/CC(O)C#CC(O)C#CC(O)CCC/C=C\CCCCCCCCC(O)C(=O)CCCCCCCCCC(O)CC(O)C#CC(=O)O (configuration not stated) [NEPHELIOSYNE A],Activity,[1],40%
same,Activity,[2],14%
